Positions of bridges follow the written chain, without caps; N, C: chain ends. Non-standard residues stand in square brackets, D forms with d. Residues, ends and D or L forms follow the SMILES beside them. 2Nal = N[C@@H](Cc1ccc2ccccc2c1)C(=O)O; Tic = O=C(O)[C@@H]1Cc2ccccc2CN1; Ahp(2) = CCCCC[C@H](N)C(=O)O; NMeNle = CCCC[C@H](NC)C(=O)O; NHexGly = CCCCCCNCC(=O)O; Nle = CCCC[C@H](N)C(=O)O; Orn = NCCC[C@H](N)C(=O)O
target: T1, mouse VISTA (mVISTA) (Mus musculus, UniProt Q9D659); assay: Cell-Based Binding High-Content Assay For mVISTA (HC CBA mVISTA); conditions: cell-based binding high-content assay, mVISTA; the 16th table; read-out: HC CBA mVISTA IC50
T1 construct: expressed in transfected cells; host or cells: Human embryonic kidney 293T cells
T1 sequence (Q9D659 33-308): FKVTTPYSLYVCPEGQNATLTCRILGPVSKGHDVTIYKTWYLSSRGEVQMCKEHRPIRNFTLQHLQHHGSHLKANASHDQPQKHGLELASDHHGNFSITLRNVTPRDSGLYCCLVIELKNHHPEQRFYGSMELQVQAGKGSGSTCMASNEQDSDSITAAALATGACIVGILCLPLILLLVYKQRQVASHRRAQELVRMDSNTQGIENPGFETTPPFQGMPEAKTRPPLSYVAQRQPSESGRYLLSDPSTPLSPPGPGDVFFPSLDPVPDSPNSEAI
Experimental: Cell-Based Binding High-Content Assay For mVISTA
Human embryonic kidney 293T cells (293T) expressing mouse VISTA (mVISTA) were used for the assessment of compounds competing with the binding of a biotinylated peptide. Cryopreserved cells were thawed in a 37° C. water bath and incubated overnight at a 37° C./5% CO2 incubator in assay culture media DMEM (Life Technologies Inc. Cat. No. 11995-126) supplemented with 10% (v/v) FBS (Sigma, Cat. No. F4135), 1× Penicillin/Streptomycin (Life Technologies Inc. Cat. No. 15140-122). Cells were harvested, washed and resuspended in DMEM media […]. To test compounds under “no-wash” condition, cells were seeded into PDL-coated 384 well plates (Corning, Cat. No. 356663) at 4,000 cells/20 μL. After incubating the cell plates for two hours at a 37° C./5% CO2 incubator, 125 nL of test compound was added using an ECHO. Alternatively, to test compounds under “wash” condition, test compounds were added first, followed by addition of 20 μL cells at a density of 4000 cells/well. After incubation for an hour, the media was removed, followed by addition of 20 μL of fresh media ( ), and plates were then incubated for another hour. To plates either under “no wash” or “wash” condition, the biotinylated peptide was added to a final concentration of 2 nM, and plates were incubated at room temperature for 30 minutes. Fifteen (15) μL of Alexa 647 conjugated Streptavidin (Life Tech, Cat. No. S21374), suspended at 2 μg/ml in media, was added to the assay plate and incubate for 30 minutes. Cells were fixed by adding 15 μL of formaldehyde at a final concentration of 8% (w/v) (Sigma Cat. No. 252549), 20 μg/mL Hoechst (Thermo Scientific Cat. No. 62249) in PBS for 10 minutes at room temperature. The plates were washed 3 times in dPBS, sealed, and read on a CellInsight NXT High Content Screening Platform IC903000 (Thermo Scientific). The 50% effective concentration (IC50) was calculated using the four-parameter logistic formula y=A+((B−A)/(1+((C/x)^D))), where A and B denote minimal and maximal % inhibition, respectively, C is the EC50, D is hill slope and x represent compound concentration.

IC50 [nM] | SMILES
24 | CCCCCCN1CC(=O)N[C@@H](Cc2ccc(O)cc2)C(=O)N[C@@H](CC(C)C)C(=O)N[C@@H](CC(=O)O)C(=O)N[C@@H](CCCNC(=N)N)C(=O)N[C@@H](CC(C)C)C(=O)N[C@@H](CCCCC)C(=O)N2CCC[C@H]2C(=O)N[C@@H](C(C)C)C(=O)N[C@@H](CC(=O)O)C(=O)N[C@H](C(=O)NCC(=O)O)CSCC(=O)N[C@@H](Cc2ccc3ccccc3c2)C(=O)N[C@@H](Cc2ccc(O)cc2)C(=O)N[C@@H](CC(=O)O)C1=O [Ex 1278] ({CH2CO}-[2Nal]YD[NHexGly]YLDRL[Ahp(2)]PVDCG-OH; thioether N-14)
26.6 | CCCCCCN1CC(=O)N[C@@H](Cc2ccc(O)cc2)C(=O)N[C@@H](CCCCC)C(=O)N[C@@H](CC(=O)O)C(=O)N[C@@H](CCCNC(=N)N)C(=O)N[C@@H](CC(C)C)C(=O)N[C@@H](CCCCC)C(=O)N2CCC[C@H]2C(=O)N[C@@H](C(C)C)C(=O)N[C@@H](CC(=O)O)C(=O)N[C@H](C(=O)NCC(N)=O)CSCC(=O)N[C@@H](Cc2ccc3ccccc3c2)C(=O)N[C@@H](Cc2ccc(O)cc2)C(=O)N[C@@H](CC(=O)O)C1=O [Ex 1279] ({CH2CO}-[2Nal]YD[NHexGly]Y[Ahp(2)]DRL[Ahp(2)]PVDCG-NH2; thioether N-14)
33.7 | CCCCCCN1CC(=O)N[C@@H](Cc2ccc(O)cc2)C(=O)N[C@@H](C(C)C)C(=O)NCC(=O)N[C@@H](CCCNC(=N)N)C(=O)N[C@@H](CC(C)C)C(=O)N[C@@H](CCCCC)C(=O)N2CCC[C@H]2C(=O)N[C@@H](C(C)C)C(=O)N[C@@H](CC(=O)O)C(=O)N[C@H](C(=O)NCC(=O)O)CSCC(=O)N[C@@H](Cc2ccc3ccccc3c2)C(=O)N[C@@H](Cc2ccc(O)cc2)C(=O)N[C@@H](CC(=O)O)C1=O [Ex 1280] ({CH2CO}-[2Nal]YD[NHexGly]YVGRL[Ahp(2)]PVDCG-OH; thioether N-14)
22.9 | CCCCCCN1CC(=O)N[C@@H](Cc2ccc(O)cc2)C(=O)N[C@@H](CC(C)C)C(=O)NCC(=O)N[C@@H](CCCNC(=N)N)C(=O)N[C@@H](CC(C)C)C(=O)N[C@@H](CCCCC)C(=O)N2CCC[C@H]2C(=O)N[C@@H](C(C)C)C(=O)N[C@@H](CC(=O)O)C(=O)N[C@H](C(=O)NCC(N)=O)CSCC(=O)N[C@@H](Cc2ccc3ccccc3c2)C(=O)N[C@@H](Cc2ccc(O)cc2)C(=O)N[C@@H](CC(=O)O)C1=O [Ex 1281] ({CH2CO}-[2Nal]YD[NHexGly]YLGRL[Ahp(2)]PVDCG-NH2; thioether N-14)
11.7 | CCCCCCN1CC(=O)N[C@@H](Cc2ccc(O)cc2)C(=O)N[C@@H](CC(C)C)C(=O)NCC(=O)N[C@@H](CCCNC(=N)N)C(=O)N[C@@H](CC(C)C)C(=O)N[C@@H](CCCCC)C(=O)N2CCC[C@H]2C(=O)N[C@@H](C(C)C)C(=O)N[C@@H](CC(=O)O)C(=O)N[C@H](C(=O)NCC(=O)O)CSCC(=O)N[C@@H](Cc2ccc3ccccc3c2)C(=O)N[C@@H](Cc2ccc(O)cc2)C(=O)N[C@@H](CC(=O)O)C1=O [Ex 1282] ({CH2CO}-[2Nal]YD[NHexGly]YLGRL[Ahp(2)]PVDCG-OH; thioether N-14)
18.9 | CCCCCCN1CC(=O)N[C@@H](Cc2ccc(O)cc2)C(=O)N[C@@H](C(C)C)C(=O)NCC(=O)N[C@@H](CCCNC(=N)N)C(=O)N[C@@H](CC(C)C)C(=O)N[C@@H](CCCCC)C(=O)N2CCC[C@H]2C(=O)N[C@@H](C(C)C)C(=O)N[C@@H](CC(=O)O)C(=O)N[C@H](C(=O)NCC(N)=O)CSCC(=O)N[C@@H](Cc2ccc3ccccc3c2)C(=O)N[C@@H](Cc2ccc(O)cc2)C(=O)N[C@@H](CC(=O)O)C1=O [Ex 1283] ({CH2CO}-[2Nal]YD[NHexGly]YVGRL[Ahp(2)]PVDCG-NH2; thioether N-14)
3.6 | CCCCCCN1CC(=O)N[C@@H](Cc2ccc(O)cc2)C(=O)N[C@@H](CCCC)C(=O)NCC(=O)N[C@@H](CCCNC(=N)N)C(=O)N[C@@H](CC(C)C)C(=O)N[C@@H](CCCCC)C(=O)N2CCC[C@H]2C(=O)N[C@@H](C(C)C)C(=O)N[C@@H](CC(=O)O)C(=O)N[C@H](C(=O)NCC(N)=O)CSCC(=O)N[C@@H](Cc2ccc3ccccc3c2)C(=O)N[C@@H](Cc2ccc(O)cc2)C(=O)N[C@@H](CC(=O)O)C1=O [Ex 1284] ({CH2CO}-[2Nal]YD[NHexGly]Y[Nle]GRL[Ahp(2)]PVDCG-NH2; thioether N-14)
8.3 | CCCCCCN1CC(=O)N[C@@H](Cc2ccc(O)cc2)C(=O)N[C@@H](CCCC)C(=O)NCC(=O)N[C@@H](CCCNC(=N)N)C(=O)N[C@@H](CC(C)C)C(=O)N[C@@H](CCCCC)C(=O)N2CCC[C@H]2C(=O)N[C@@H](C(C)C)C(=O)N[C@@H](CC(=O)O)C(=O)N[C@H](C(=O)NCC(=O)O)CSCC(=O)N[C@@H](Cc2ccc3ccccc3c2)C(=O)N[C@@H](Cc2ccc(O)cc2)C(=O)N[C@@H](CC(=O)O)C1=O [Ex 1285] ({CH2CO}-[2Nal]YD[NHexGly]Y[Nle]GRL[Ahp(2)]PVDCG-OH; thioether N-14)
39.2 | CCCCCCN1CC(=O)N[C@@H](Cc2ccc(O)cc2)C(=O)N[C@@H](CC(C)C)C(=O)NCC(=O)N[C@@H](CCCNC(=N)N)C(=O)N[C@@H](CC(C)C)C(=O)N[C@@H](CCCCC)C(=O)N2CCC[C@H]2C(=O)N[C@@H](C(C)C)C(=O)N[C@@H](CCC(=O)O)C(=O)N[C@H](C(=O)NCC(N)=O)CSCC(=O)N[C@@H](Cc2ccc3ccccc3c2)C(=O)N[C@@H](Cc2ccc(O)cc2)C(=O)N[C@@H](CC(=O)O)C1=O [Ex 1286] ({CH2CO}-[2Nal]YD[NHexGly]YLGRL[Ahp(2)]PVECG-NH2; thioether N-14)
42.7 | CCCCCCN1CC(=O)N[C@@H](Cc2ccc(O)cc2)C(=O)N[C@@H](CCCC)C(=O)NCC(=O)N[C@@H](CCCNC(=N)N)C(=O)N[C@@H](CC(C)C)C(=O)N[C@@H](CCCCC)C(=O)N2CCC[C@H]2C(=O)N[C@@H](C(C)C)C(=O)N[C@@H](CCC(=O)O)C(=O)N[C@H](C(=O)NCC(N)=O)CSCC(=O)N[C@@H](Cc2ccc3ccccc3c2)C(=O)N[C@@H](Cc2ccc(O)cc2)C(=O)N[C@@H](CC(=O)O)C1=O [Ex 1287] ({CH2CO}-[2Nal]YD[NHexGly]Y[Nle]GRL[Ahp(2)]PVECG-NH2; thioether N-14)
16.7 | CCCCCCN1CC(=O)N[C@@H](Cc2ccc(O)cc2)C(=O)N[C@@H](CCCCN)C(=O)NCC(=O)N[C@@H](CCCN)C(=O)N[C@@H](CC(C)C)C(=O)N[C@@H](CCCCC)C(=O)N2CCC[C@H]2C(=O)N[C@@H](C(C)C)C(=O)N[C@@H](CO)C(=O)N[C@H](C(=O)NCC(=O)O)CSCC(=O)N[C@@H](Cc2ccc3ccccc3c2)C(=O)N[C@@H](Cc2ccc(O)cc2)C(=O)N[C@@H](CC(=O)O)C1=O [Ex 1288] ({CH2CO}-[2Nal]YD[NHexGly]YKG[Orn]L[Ahp(2)]PVSCG-OH; thioether N-14)
25.2 | CCCCCCN1CC(=O)N[C@@H](Cc2ccc(O)cc2)C(=O)N[C@@H](CCCCN)C(=O)N[C@@H](CC(=O)O)C(=O)N[C@@H](CCCN)C(=O)N[C@@H](CC(C)C)C(=O)N[C@@H](CCCCC)C(=O)N2CCC[C@H]2C(=O)N[C@@H](C(C)C)C(=O)N[C@@H](CO)C(=O)N[C@H](C(=O)NCC(=O)O)CSCC(=O)N[C@@H](Cc2ccc3ccccc3c2)C(=O)N[C@@H](Cc2ccc(O)cc2)C(=O)N[C@@H](CC(=O)O)C1=O [Ex 1289] ({CH2CO}-[2Nal]YD[NHexGly]YKD[Orn]L[Ahp(2)]PVSCG-OH; thioether N-14)
11.5 | CCCCCCN1CC(=O)N[C@@H](Cc2ccc(O)cc2)C(=O)N[C@@H](CC(C)C)C(=O)NCC(=O)N[C@@H](CCCNC(=N)N)C(=O)N2Cc3ccccc3C[C@H]2C(=O)N[C@@H](CCCCC)C(=O)N2CCC[C@H]2C(=O)N[C@@H](C(C)C)C(=O)N[C@@H](CO)C(=O)N[C@H](C(=O)NCC(=O)O)CSCC(=O)N[C@@H](Cc2ccc3ccccc3c2)C(=O)N[C@@H](Cc2ccc(O)cc2)C(=O)N[C@@H](CC(=O)O)C1=O [Ex 1290] ({CH2CO}-[2Nal]YD[NHexGly]YLGR[Tic][Ahp(2)]PVSCG-OH; thioether N-14)
5.1 | CCCCCCN1CC(=O)N[C@@H](Cc2ccc(O)cc2)C(=O)N[C@@H](CC(C)C)C(=O)NCC(=O)N[C@@H](CCCNC(=N)N)C(=O)N(C)[C@@H](CCCC)C(=O)N[C@@H](CCCCC)C(=O)N2CCC[C@H]2C(=O)N[C@@H](C(C)C)C(=O)N[C@@H](CO)C(=O)N[C@H](C(=O)NCC(=O)O)CSCC(=O)N[C@@H](Cc2ccc3ccccc3c2)C(=O)N[C@@H](Cc2ccc(O)cc2)C(=O)N[C@@H](CC(=O)O)C1=O [Ex 1291] ({CH2CO}-[2Nal]YD[NHexGly]YLGR[NMeNle][Ahp(2)]PVSCG-OH; thioether N-14)

From patent publication US20240218022A1, “ANTI-VISTA MACROCYCLIC PEPTIDES AND COMPOSITIONS” (BRISTOL-MYERS SQUIBB COMPANY, priority 2022, published 2024)
